Data on eleven compounds can be found in patent US20060100431A1, “Biologically active compounds” (Amura Therapeutics Limited, priority 2002, published 2006).

As a reminder, the Ki is the dissociation constant of the complex between target and ligand, obtained from inhibition or displacement.

Common to all, as to assay type: biochemical
One assay has as its target T1, human cathepsin B (Homo sapiens, UniProt P07858).
T1 construct: purchased CN Biosciences
As to the kind of experiment: Cathepsin B peptidase activity assay (Ki). The settings on record: read-out: Ki, inhibitors of cathepsin B. The procedure: Unless otherwise stated, all general chemicals and biochemicals were purchased from either the Sigma Chemical Company, Poole, Dorset, U.K or from Fisher Scientific UK, Loughborough, Leicestershire, U.K. Absorbance assays were carried out in flat-bottomed 96-well plates (Spectra; Greiner Bio-One Ltd., Stonehouse, Gloucestershire, U.K.) using a SpectraMax PLUS384 plate reader (Molecular Devices, Crawley, U.K.). […] Fluorescence assays were monitored using a SpectraMax Gemini fluorescence plate reader (Molecular Devices). For substrates employing either a 7-amino-4-methylcoumarin (AMC) or a 7-amino-4-trifluoromethylcoumarin (AFC) fluorophore, assays were monitored at an excitation wavelength of 365 nm and an emission wavelength of 450 nm and the fluorescence plate reader calibrated with AMC. For substrates employing a 3-amino-benzoyl (Abz) fluorophore, assays were monitored at an excitation wavelength of 310 nm and an emission wavelength of 445 nm; the fluorescence plate reader calibrated with 3-amino-benzamide (Fluka). Unless otherwise indicated, all the peptidase substrates were purchased from Bachem UK, St Helens, Merseyside, UK. […] Hydroxyethylpiperazine ethanesulfonate (HEPES), tris-hydroxylmethyl aminomethane (tris) base, bis-tris-propane and all the biological detergents (e.g. CHAPS, zwittergents, etc.) were purchased from CN Biosciences UK, Beeston, Nottinghamshire, U.K. Glycerol was purchased from Amersham Pharmacia Biotech, Little Chalfont, Buckinghamshire, U.K. Stock solutions of substrate or inhibitor were made up to 10 mM in 100% dimethylsulfoxide (DMSO) (Rathburns, Glasgow, U.K.) and diluted as appropriately required. In all cases the DMSO concentration in the assays was maintained at less than 1% (vol./vol.).
Enzyme was added as required to initiate the reaction and the activity, as judged by the change in fluorescence upon conversion of substrate to product, was monitored over time. All assays were carried out at 25±1° C.
Bovine cathepsin S, human cathepsin L, human cathepsin H and human cathepsin B were obtained from CN Biosciences. Recombinant human cathepsin S, human cathepsin K and human cathepsin X were obtained from Dr. Boris Turk (Josef Stefan Institute, Ljubljana, Slovenia). Unless otherwise stated, all peptidase activity assays were carried out in 10 mM bis-tris-propane (BTP), pH 6.5 containing 1 mM EDTA, 5 mM 2-mercaptoethanol and 1 mM CaCl2.
The apparent inhibition constant (Ki) for each compound was determined on the basis that inhibition was reversible and occurred by a pure-competitive mechanism. […] [formula]
[formula] Ki^app=Ki(1+[So]/KM^app) (4)
Curves were fitted by non-linear regression analysis (Prism) using a fixed value for the enzyme concentration.

Another assay addresses Wild-type cruzipain (Trypanosoma cruzi, UniProt P25779). As to the kind of experiment: Trypanosoma cruzi cruzipain peptidase activity assay (Ki). The settings on record: read-out: Ki, inhibitors of cruzain and cruzipains. Summed up: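 Native cruzipain from T. cruzi Dm28 epimastigotes, 2.5 nM, in 100 mM sodium phosphate pH 6.75 with 1 mM EDTA and 10 mM L-cysteine, 25 °C, DMSO <1%. Rates taken from continuous fluorogenic substrate read; Ki by regression assuming reversible pure-competitive inhibition.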

The target of another assay is T2, human cathepsin L (Homo sapiens, UniProt P07711).
T2 construct: purchased CN Biosciences
As to the kind of experiment: Cathepsin L peptidase activity assay (Ki). The settings on record: read-out: Ki, inhibitors of cathepsin L. Here is the method:
Unless otherwise stated, all general chemicals and biochemicals were purchased from either the Sigma Chemical Company, Poole, Dorset, U.K or from Fisher Scientific UK, Loughborough, Leicestershire, U.K. Absorbance assays were carried out in flat-bottomed 96-well plates (Spectra; Greiner Bio-One Ltd., Stonehouse, Gloucestershire, U.K.) using a SpectraMax PLUS384 plate reader (Molecular Devices, Crawley, U.K.). Fluorescence high throughput assays were carried out in either 384-well microtitre plates (Corning Costar 3705 plates, Fisher Scientific) or 96-well ‘U’ bottomed Microfluor W1 microtitre plates (Thermo Labsystems, Ashford, Middlesex, U.K.). Fluorescence assays were monitored using a SpectraMax Gemini fluorescence plate reader (Molecular Devices). For substrates employing either a 7-amino-4-methylcoumarin (AMC) or a 7-amino-4-trifluoromethylcoumarin (AFC) fluorophore, assays were monitored at an excitation wavelength of 365 nm and an emission wavelength of 450 nm and the fluorescence plate reader calibrated with AMC. For substrates employing a 3-amino-benzoyl (Abz) fluorophore, assays were monitored at an excitation wavelength of 310 nm and an emission wavelength of 445 nm; the fluorescence plate reader calibrated with 3-amino-benzamide (Fluka). Unless otherwise indicated, all the peptidase substrates were purchased from Bachem UK, St Helens, Merseyside, UK. Substrates utilizing fluorescence resonance energy transfer methodology (i.e. FRET-based substrates) were synthesized at Incenta Limited using published methods (Atherton & Sheppard, Solid Phase Peptide Synthesis, IRL Press, Oxford, U.K, 1989) and employed Abz (2-aminobenzoyl) as the fluorescence donor and 3-nitro-tyrosine [Tyr(NO2)] as the fluorescence quencher (Meldal, M. and Breddam, K., Anal. Biochem, 195, 141-147, 1991). Hydroxyethylpiperazine ethanesulfonate (HEPES), tris-hydroxylmethyl aminomethane (tris) base, bis-tris-propane and all the biological detergents (e.g. CHAPS, zwittergents, etc.) were purchased from CN Biosciences UK, Beeston, Nottinghamshire, U.K. Glycerol was purchased from Amersham Pharmacia Biotech, Little Chalfont, Buckinghamshire, U.K. Stock solutions of substrate or inhibitor were made up to 10 mM in 100% dimethylsulfoxide (DMSO) (Rathburns, Glasgow, U.K.) and diluted as appropriately required. In all cases the DMSO concentration in the assays was maintained at less than 1% (vol./vol.).
Assay protocols were based on literature precedent (Table 4; Barrett, A. J., Rawlings, N. D. and Woessner, J. F., 1998, Handbook of Proteolytic Enzymes, Academic Press, London and references therein) and modified as required to suit local assay protocols. Enzyme was added as required to initiate the reaction and the activity, as judged by the change in fluorescence upon conversion of substrate to product, was monitored over time. All assays were carried out at 25±1° C.
Bovine cathepsin S, human cathepsin L, human cathepsin H and human cathepsin B were obtained from CN Biosciences. Recombinant human cathepsin S, human cathepsin K and human cathepsin X were obtained from Dr. Boris Turk (Josef Stefan Institute, Ljubljana, Slovenia). Unless otherwise stated, all peptidase activity assays were carried out in 10 mM bis-tris-propane (BTP), pH 6.5 containing 1 mM EDTA, 5 mM 2-mercaptoethanol and 1 mM CaCl2. Human cathepsin H activity assays were carried out in 10 mM BTP pH 6.5, 142 mM NaCl2, 1 mM CaCl2, 1 mM EDTA, 1 mM DTT, 0.035 mM Zwittergent 3-16. Human cathepsin K assays were carried out in 100 mM sodium acetate; pH 5.5 containing 20 mM L-cysteine and 1 mM EDTA (Bossard, M. J., et. al., J. Biol. Chem., 21, 12517-12524, 1996). Human cathepsin X assays were carried out in 100 mM sodium acetate; pH 5.5 containing 20 mM L-cysteine; 0.05% (w/v) Brij 35 and 1 mM EDTA (Santamaria, I., et. al., J. Biol. Chem., 273, 16816-16823, 1998; Klemencic, J, et al., Eur. J. Biochem., 267, 5404-5412, 2000). […]

The next assay concerns the target T3, CPB2.8ΔCTE (Leishmania mexicana, UniProt P36400).
T3 construct: Wild-type recombinant CPB without the C-terminal extention (i.e. CPB2.8ΔCTE); Dr. Jeremy Mottram (Wellcome Centre for Molecular Parasitology, University of Glasgow)
Description: Leishmania mexicana cysteine protease B (CPB) peptidase activity assay (Ki). Conditions: Ki, inhibitors of Leismania mexicana CPB protease. An outline of the steps: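 Apparent Ki was derived by regression of activity against inhibitor concentration, assuming pure-competitive reversible binding. Reaction: 0.25 nM CPB lacking the C-terminal extension, pH 5.5 acetate buffer (1 mM EDTA, 200 mM NaCl, 10 mM DTT), 25 °C, followed by continuous substrate fluorescence.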

Sequence of Wild-type cruzipain (P25779 whole entry): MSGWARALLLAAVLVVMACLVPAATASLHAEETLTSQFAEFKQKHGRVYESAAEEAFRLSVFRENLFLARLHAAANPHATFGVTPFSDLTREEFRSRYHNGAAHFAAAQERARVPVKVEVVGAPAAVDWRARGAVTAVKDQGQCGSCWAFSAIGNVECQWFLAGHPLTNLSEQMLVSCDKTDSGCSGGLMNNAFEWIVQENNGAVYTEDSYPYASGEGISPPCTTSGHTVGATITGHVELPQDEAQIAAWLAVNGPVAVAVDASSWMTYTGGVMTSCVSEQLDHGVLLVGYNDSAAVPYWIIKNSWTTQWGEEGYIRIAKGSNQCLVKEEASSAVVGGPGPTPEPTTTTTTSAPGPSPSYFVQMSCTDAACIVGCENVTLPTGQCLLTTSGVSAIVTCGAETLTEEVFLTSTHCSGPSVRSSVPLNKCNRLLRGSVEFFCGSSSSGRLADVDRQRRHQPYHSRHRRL
T2 sequence (P07711 114-333): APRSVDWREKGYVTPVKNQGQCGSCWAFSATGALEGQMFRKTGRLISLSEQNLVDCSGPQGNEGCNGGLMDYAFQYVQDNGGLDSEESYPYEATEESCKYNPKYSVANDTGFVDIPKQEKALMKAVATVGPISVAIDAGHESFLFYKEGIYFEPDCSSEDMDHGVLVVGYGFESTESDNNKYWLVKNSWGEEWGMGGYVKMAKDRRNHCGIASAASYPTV
T3 sequence (P36400 126-343, stated change not applied): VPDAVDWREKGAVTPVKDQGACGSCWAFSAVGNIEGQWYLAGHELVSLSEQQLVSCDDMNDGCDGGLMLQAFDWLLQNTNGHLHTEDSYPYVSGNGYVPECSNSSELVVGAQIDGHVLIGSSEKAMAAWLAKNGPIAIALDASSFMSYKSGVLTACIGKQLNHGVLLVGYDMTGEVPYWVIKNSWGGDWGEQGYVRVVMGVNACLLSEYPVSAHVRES

Consider `CC(C)C[C@H](NC(=O)c1ccc(Oc2ccccc2)cc1)C(=O)N1CC[C@@H]2[C@H]1C(=O)CN2C(=O)c1cccc(S(C)(=O)=O)c1` [Example 41, (3aR,6aS)-N-{(1S)-1-[4-(3-Methanesulfonyl-benzoyl)-6-oxo-hexahydro-pyrrolo[3,2-b]pyrrole-1-carbonyl]-3-methyl-butyl}-4-phenoxy-benzamide], for which the Ki at human cathepsin B was less than 5 µM.

As to `O=C(N[C@@H](CSCc1ccccc1)C(=O)N1CC[C@@H]2[C@H]1C(=O)CN2C(=O)c1ccccc1)c1csc2ccccc12` [Example 253, (3aR,6aS)-Benzo[b]thiophene-3-carboxylic acid [(1R)-2-(4-benzoyl-6-oxo-hexahydro-pyrrolo[3,2-b]pyrrole-1-yl)-1-benzylsulfanylmethyl-2-oxo-ethyl]-amide], the Ki on human cathepsin B is less than 5 µM.

Regarding `O=C(N[C@@H](CSCc1ccccc1)C(=O)N1CC[C@@H]2[C@H]1C(=O)CN2C(=O)C12CC3CC(CC1C3)C2)c1ccsc1` [Example 266, (3aR,6aS)-Thiophene-3-carboxylic acid {(1R)-1-benzylsulfanylmethyl-2-[4-(hexahydro-2,5-methano-pentalene-3a-carbonyl)-6-oxo-hexahydro-pyrrolo[3,2-b]pyrrole-1-yl]-2-oxo-ethyl}-amide], on human cathepsin B, the Ki is less than 5 µM.

With `O=C(N[C@@H](CSCc1ccccc1)C(=O)N1CC[C@@H]2[C@H]1C(=O)CN2C(=O)c1cccc([N+](=O)[O-])c1)c1ccsc1` [Example 264, (3aR,6aS)-Thiophene-3-carboxylic acid {(1R)-1-benzylsulfanylmethyl-2-[4-(3-nitro-benzoyl)-6-oxo-hexahydro-pyrrolo[3,2-b]pyrrole-1-yl]-2-oxo-ethyl}-amide], the inhibition constant (Ki) at human cathepsin B was less than 5 µM.

With `CC(C)C[C@H](NC(=O)c1ccc(Oc2ccccc2)cc1)C(=O)N1CC[C@@H]2[C@H]1C(=O)CN2C(=O)c1ccccc1S(C)(=O)=O` [Example 40, (3aR,6aS)-N-{(1S)-1-[4-(2-Methanesulfonyl-benzoyl)-6-oxo-hexahydro-pyrrolo[3,2-b]pyrrole-1-carbonyl]-3-methyl-butyl}-4-phenoxy-benzamide], at human cathepsin B, the Ki is less than 5 µM.

With `O=C(N[C@@H](CSCc1ccccc1)C(=O)N1CC[C@@H]2[C@H]1C(=O)CN2C(=O)c1ccccc1)c1cc2ccccc2s1` [Example 252, (3aR,6aS)-Benzo[b]thiophene-2-carboxylic acid [(1R)-2-(4-benzoyl-6-oxo-hexahydro-pyrrolo[3,2-b]pyrrol-1-yl)-1-benzylsulfanylmethyl-2-oxo-ethyl]-amide], the Ki at human cathepsin B was less than 5 µM.

Consider `O=C(N[C@@H](CSCc1ccccc1)C(=O)N1CC[C@@H]2[C@H]1C(=O)CN2C(=O)c1ccc(O)cc1)c1ccsc1` [Example 267, (3aR,6aS)-Thiophene-3-carboxylic acid {(1R)-1-benzylsulfanylmethyl-2-[4-(4-hydroxy-benzoyl)-6-oxo-hexahydro-pyrrolo[3,2-b]pyrrol-1-yl]-2-oxo-ethyl}-amide], for which, at human cathepsin B, the Ki is less than 5 µM.

On to `Cc1cc(C)cc(C(=O)N2CC(=O)[C@@H]3[C@H]2CCN3C(=O)[C@H](CC(C)C)NC(=O)c2ccc(N(C)C)cc2)c1` [Example 111, (3aR,6aS)-4-Dimethylamino-N-{(1S)-1-[4-(3,5-dimethyl-benzoyl)-6-oxo-hexahydro-pyrrolo[3,2-b]pyrrole-1-carbonyl]-3-methyl-butyl}-benzamide], for which the Ki at Wild-type cruzipain, on human cathepsin L and on CPB2.8ΔCTE was less than 5 µM throughout.

Consider `CC(C)C[C@H](NC(=O)c1ccc(N(C)C)cc1)C(=O)N1CC[C@@H]2[C@H]1C(=O)CN2C(=O)c1cccc(C(F)(F)F)c1` [Example 68, (3aR,6aS)-4-Dimethylamino-N-{(1S)-3-methyl-1-[6-oxo-4-(3-trifluoromethyl-benzoyl)-hexahydro-pyrrolo[3,2-b]pyrrole-1-carbonyl]-butyl}-benzamide], for which the Ki at Wild-type cruzipain, on human cathepsin L and at CPB2.8ΔCTE was less than 5 µM in each case.

Regarding `CC(C)C[C@H](NC(=O)c1cccc(CN)c1)C(=O)N1CC[C@@H]2[C@H]1C(=O)CN2C(=O)Nc1ccccc1` [Example 175, (3aS,6aR)-4-[(2S)-2-(3-Aminomethyl-benzoylamino)-4-methyl-pentanoyl]-3-oxo-hexahydro-pyrrolo[3,2-b]pyrrole-1-carboxylic acid phenylamide], the Ki on Wild-type cruzipain, on human cathepsin L and at CPB2.8ΔCTE was less than 5 µM each time.

For `CS(=O)(=O)c1ccccc1C(=O)N1CC(=O)[C@@H]2[C@H]1CCN2C(=O)[C@H](CC1CCCCC1)NC(=O)C(c1ccccc1)c1ccccc1` [Example 279, (3aR,6aS)-N-{(1S)-1-Cyclohexylmethyl-2-[4-(2-methanesulfonyl-benzoyl)-6-oxo-hexahydro-pyrrolo[3,2-b]pyrrole-1-yl]-2-oxo-ethyl}-2,2-diphenyl-acetamide], on human cathepsin B, the Ki was less than 5 µM.
